# Test system: Plasmodium falciparum
# Assay: GSK_TCMDC: Inhibition of Plasmodium falciparum 3D7 in whole erythrocytes, using parasite LDH activity as an index of growth.
# Format: functional, organism-based
# Details: Plasmodium falciparum, 3D7
smiles,measurement,value
Oc1c(Br)cc2oc3c(c2c1CNCc1ccccc1)CCCC3,XC50,961 nM
CN1CCN(c2cccc(-c3nnc(-c4ccc(OCC(=O)NCc5cccc(C(F)(F)F)c5)c([N+](=O)[O-])c4)o3)c2)CC1,XC50,962 nM
O=C(NCc1ccc(C(=O)NCc2cccc3ccccc23)cc1)c1ccc(O)c(-c2ccc(Cl)c(Cl)c2)c1,XC50,814 nM
COC(=O)c1ccc2c(-c3nc4ccc(OC)cc4[nH]3)c[nH]c2c1,XC50,876 nM
CC(=O)Oc1cc(C)ccc1C1CCN(CCCCNC(=O)c2ccc(-c3ccc(C(F)(F)F)cc3)cc2)CC1,XC50,646 nM
C(=NN=c1cc(-c2ccccc2)[nH]c2ccccc12)c1cccnc1,XC50,1230 nM
COc1ccc(Br)cc1C1Nc2ccc3ccccc3c2C2=C1C(=O)CC(c1ccccc1)C2 (configuration not stated),XC50,590 nM
CC(C)Nc1nc(NCCc2c[nH]cn2)nc(Nc2ccc(Oc3ccccc3)cc2)n1,XC50,887 nM
OC(c1ccc(Cl)cc1)(c1ccc(Cl)cc1)C(c1ccc(Cl)cc1)n1ccnc1 (configuration not stated),XC50,863 nM
O=C(Nc1ccc(OC2CCN(Cc3ccsc3)C2)c(Cl)c1)c1ccsc1 (configuration not stated),XC50,1020 nM
Cc1cc2nc(-c3ccc(/C=C/C(=O)NC4CCCCC4)cc3)[nH]c2cc1C,XC50,1010 nM
CC(C)C[C@@H](C(=O)N[C@H](C(=O)Nc1nccs1)C(C)(C)C)[C@H](CCC(F)(F)F)N(O)C=O,XC50,598 nM
COc1ccc2nccc(NC(=O)C3(O)CCC(NCc4ccc5c(c4)NCCS5)CC3)c2n1 (configuration not stated),XC50,598 nM
Cc1ccccc1C1CCN(C2CCC(NC(=O)c3cncc(-c4ccccc4)c3)CC2)CC1 (configuration not stated),XC50,930 nM
COc1cccc2c(Oc3ccccc3C)ccnc12,XC50,1230 nM
O=C(NC1CCN(c2ccnc3ccccc23)C1)c1ccc(OC(F)(F)F)cc1 (configuration not stated),XC50,1150 nM
COc1cc(NC(=O)c2ccc3oc4ccccc4c3c2)ccc1OCCN1CCCCC1,XC50,924 nM
CCCCN(CCCC)CCC(O)C(=Cc1ccc(Cl)cc1Cl)c1ccc(C(F)(F)F)cc1N (configuration not stated),XC50,193 nM
CCN1CCN(CCNc2c3ccccc3nc3ccccc23)CC1,XC50,1020 nM
O=C(Nc1cccc(CN2CCCN(Cc3cccc(Cl)c3)CC2)c1)c1ccc(Br)cc1,XC50,944 nM
Cc1oc(-c2cccc(Oc3ccccc3)c2)nc1CN(Cc1cnn(C)c1)C(C)C,XC50,1090 nM
COc1cc(NC(=O)N2CCOC(CCN3CCC(c4ccccc4)CC3)(c3ccc(Cl)c(Cl)c3)C2)cc(OC)c1 (configuration not stated),XC50,287 nM
Cc1[nH]c(C)c(-c2ccc(Oc3ccc(C(F)(F)F)cc3)cc2)c(=O)c1Br,XC50,206 nM
CCOC(=O)c1[nH]c2ccc(F)cc2c1NC(=O)CN1CCN(c2cccc(C(F)(F)F)c2)CC1,XC50,458 nM
CCC(CC)C(CC(=O)NC(C)(C)CCc1ccccc1OC)Nc1ccc(C#N)c2ccccc12 (configuration not stated),XC50,796 nM
CC1(C)NC(N)=NC(=N)N1OCCSCc1cc(Cl)sc1Cl,XC50,3.2 nM
Cc1cccc2nc(-c3ccc(-c4cccc(NC(=O)C(C)CN5CCN(C)CC5)c4)s3)[nH]c12 (configuration not stated),XC50,748 nM
COc1cc(Nc2ccnc3cc(-c4ccccn4)ccc23)cc(OC)c1OC,XC50,912 nM
CC[C@H](C)CNC(=O)c1cncc(-c2ccc(CN(C)C3CCN(C)CC3)cc2)c1,XC50,987 nM
CS(=O)(=O)CCN(CCS(C)(=O)=O)Cc1ccc(-c2ccc3ncnc(Nc4ccc(OCc5cccc(F)c5)c(Cl)c4)c3c2)o1,XC50,1020 nM
O=C(Nc1cccc(-c2cccc(-c3ccc(F)cc3)n2)c1)c1ccc([N+](=O)[O-])o1,XC50,361 nM
O=C(NC1CCN(Cc2ccccc2)CC1)c1cc(-c2ccncc2)nc2ccc(Cl)cc12,XC50,920 nM
CN(C)c1ccc(C=CC(=O)NC(=O)c2ccccc2O)cc1,XC50,227 nM
Cc1cccc2nc(-c3ccc(-c4ccc(CN5CCN(CC6CCCN(C)C6)CC5)cc4)s3)[nH]c12 (configuration not stated),XC50,142 nM
CNC(=O)c1ccccc1Nc1nc(Nc2ccc(N3CCOCC3)cc2)ncc1Cl,XC50,727 nM
Cc1nc(N)nc(N)c1-c1ccc(Cl)c(Cl)c1 [METOPRINE],XC50,79.6 nM
Cc1[nH]c(C)c(-c2ccc(CCc3ccc(F)cc3F)cc2)c(=O)c1Br,XC50,5.29 nM
O=c1cc(NCCCNCc2ccc3c(c2)OC(F)(F)O3)[nH]c2ccccc12,XC50,770 nM
CCCCNCc1ccc(-c2nc(CN(CCCn3ccnc3)C(=O)Nc3ccc(CC)cc3)cs2)cc1,XC50,830 nM
Cc1cccc2nc(-c3ccc(-c4cccc(CN5CCN(c6ccc(C#N)cn6)CC5)c4)s3)[nH]c12,XC50,1420 nM
CC(C)(C)c1ccc(NC(=O)c2ccc(CN3CCCN(Cc4ccsc4)CC3)cc2)cc1,XC50,716 nM
CCOc1c(CNCCCNc2nc3ccccc3[nH]2)cc(Br)cc1OC,XC50,557 nM
COc1ccc2nccc([C@@H](O)CN3CCC(NC(=O)C(c4ccccc4C)N4CCC(Cc5ccccc5)CC4)CC3)c2c1 (some centres not stated),XC50,261 nM
CNC(=O)c1cnc(Nc2ccc(OCC(O)CN(C)C)cc2)nc1Nc1cccc([N+](=O)[O-])c1 (configuration not stated),XC50,617 nM
COc1cc2c(cc1OC)C(C(=O)Nc1cc(OC)c(OC)c(OC)c1)C(c1ccc(SC)cc1)N(C)C2=O (configuration not stated),XC50,986 nM
COc1coc(C(=O)NC2CCN(CC3(c4ccc(Cl)cc4)CCC3)CC2)c1OC,XC50,164 nM
CC(C)(C)c1ccc(CNC(=O)c2cc(CNC3CCNCC3)ccc2O)cc1,XC50,710 nM
CCC(C)CN1CCN(c2ccc(NC(=O)c3cccs3)cc2)C(C)C1 (configuration not stated),XC50,544 nM
COc1ccc(-c2cccc(NC(=O)c3cccc(C#N)c3)c2)cc1CN1CCNCC1,XC50,728 nM
CCC(C)CN1C(=O)C(c2ccccc2)(c2ccccc2)N=C1N (configuration not stated),XC50,712 nM
Oc1cccc(-c2nc3cc(C4=NC5CCCCC5N4)ccc3[nH]2)c1 (configuration not stated),XC50,592 nM
COc1cccc2cc(C(=O)N[C@@H](CC(C)C)C(=O)N[C@H](C=NN3CC(=O)NC3=O)CC(C)C)oc12,XC50,920 nM
CC(C)c1ccc(NC(=O)c2cccc(CN3CCCN(Cc4cccc(C#N)c4)CC3)c2)cc1,XC50,948 nM
CCCC1(NC[C@@H](O)[C@H](Cc2ccccc2)NC(=O)c2cc(NCC)cc(N3CCCCS3(=O)=O)c2)CCCCC1,XC50,247 nM
N#Cc1ccc(N2CCN(Cc3cccc(-c4cccc(-c5nc6cc(F)ccc6[nH]5)c4)c3)CC2)nc1,XC50,959 nM
CCOc1ccc2ccccc2c1C(=O)Nc1cc(C)nn1-c1nc(C)cc(=O)[nH]1,XC50,1010 nM
N=c1n(CCN2CCCCC2)c2ccccc2n1CC(O)c1cccc(Br)c1 (configuration not stated),XC50,1140 nM
Fc1ccc(CNc2ccc3ncc(-c4cccnc4)n3n2)cc1,XC50,928 nM
CSc1ccc(CN2CCC(CNC(=O)c3cc(-c4ccccc4F)cs3)C2)cc1 (configuration not stated),XC50,1140 nM
O=S(=O)(NCCN1CCCC1)c1ccc(-c2cccc(CNCCc3cccs3)c2)s1,XC50,705 nM
CC[C@H](C)CNC(=O)c1ccnc(-c2ccc(CN3CCC(N4CCCC4)CC3)cc2)c1,XC50,891 nM
CC(C)NCc1ccc(-c2cccc(NC(=O)c3ccc(C#N)cc3)c2)cc1,XC50,740 nM
CCCN(CC1CC1)c1ncc(-c2ccccc2CNCc2ccccc2O)cn1,XC50,496 nM
Cc1[nH]c2ccc(O)cc2c1C1CCN(CC2CCC(NC(=O)/C=C/c3ccc(Cl)c(Cl)c3)CC2)CC1 (configuration not stated),XC50,764 nM
CCCCCc1cnc2nc(N)nc(N)c2c1,XC50,1230 nM
CC1CC(NCCCNc2cc(=O)c3ccccc3[nH]2)c2cc(Cl)c(Cl)c(Cl)c21 (configuration not stated),XC50,724 nM
CCc1cc2c(O)c([N+](=O)[O-])c(=O)oc2cc1OCCCCCOc1cc2oc(=O)c([N+](=O)[O-])c(O)c2cc1CC,XC50,257 nM
O=C(Nc1cc(F)cc(F)c1)N[C@H]1CCN(CCCCCNC(=O)C2CC2c2ccc(Cl)c(Cl)c2)C1 (some centres not stated),XC50,1080 nM
COc1ccc(NC(=O)NC2CCN(CCCOc3cc(C)nc4ccccc34)CC2)cc1OC,XC50,1280 nM
C=Cc1sc(CNCCCNc2cc(=O)c3ccccc3[nH]2)c(C)c1Br,XC50,1050 nM
COCc1cc(C)nc2sc(C(=O)Nc3cc(C(C)(C)C)ccc3O)c(N)c12,XC50,714 nM
CCC(CC)NCc1c(O)ccc2c(CNC(CC)CC)c(O)ccc12,XC50,390 nM
CC(Cc1ccc(OCc2ccccc2)cc1)Nc1nc(O)c2ccccc2n1 (configuration not stated),XC50,568 nM
CCOc1ccc(-c2nonc2NC(=O)c2cccs2)cc1OCC,XC50,756 nM
Cc1cccc2nc(-c3ccc(-c4cccc(C(=O)NCCN5CCCC5)c4)s3)[nH]c12,XC50,1140 nM
CN1CCCC(CN2CCN(Cc3cccc(-c4cccc(-c5nc6ccccc6[nH]5)c4)c3)CC2)C1 (configuration not stated),XC50,139 nM
O=S(=O)(c1ccc(Cl)cc1Cl)N1CCCCC(c2ccc(C(F)(F)F)cc2)=N1,XC50,160 nM
COc1cc(-c2cc(-c3ccc(S(C)(=O)=O)cc3)cnc2N)ccc1O,XC50,101 nM
O=C(NC1CCN(CCc2c[nH]c3ccc(F)cc23)CC1)c1ncc(-c2ccccc2)[nH]1,XC50,868 nM
CN(C)C(=O)O[C@@H]1CN[C@H](C#Cc2cc3ncnc(Nc4ccc5c(cnn5Cc5cccc(F)c5)c4)c3s2)C1,XC50,759 nM
c1cc(CN2CCCCC2)cc(-c2cccc(-c3nc4ccccc4[nH]3)c2)c1,XC50,828 nM
Cc1nnsc1C(=O)Nc1cccc(-c2ccc(-c3nc4ccccc4[nH]3)s2)c1,XC50,885 nM
Clc1cccc(C=NNc2nc(=Nc3ccccc3)[nH]c(=Nc3ccccc3)[nH]2)c1,XC50,844 nM
CC(CN1CCN(C)CC1)C(=O)Nc1cccc(-c2cccc(-c3nc4ccccc4[nH]3)c2)c1 (configuration not stated),XC50,1010 nM
O=C(Cn1c(CCc2cccc(F)c2F)nc(=O)c2cccnc21)N(Cc1ccc(-c2ccc(C(F)(F)F)cc2)cc1)C1CCN(C2CCOCC2)CC1,XC50,828 nM
N#Cc1cccc(C(=O)Nc2cccc(-c3ccc(C(=O)Nc4cccnc4)cc3)c2)c1,XC50,693 nM
O=C(/C=C/c1ccccc1O)NCCCCCN1CCC(c2c[nH]c3ccccc23)CC1,XC50,827 nM
CC(=O)c1ccc(-c2ccc(C(=O)NCCCCN3CCC(c4ccc5c(c4O)CCCC5)CC3)cc2)cc1,XC50,762 nM
CC1(C)NC(N)=NC(=N)N1OCCOc1cccc(C(F)(F)F)c1,XC50,3.2 nM
CCc1c[nH]c2c(N3CCCS3(=O)=O)cc(C(=O)N[C@@H](Cc3ccccc3)[C@H](O)CNC(C)(C)CCCC(C)C)cc12,XC50,672 nM
O=C(Nc1ccccc1O)C1CCN(c2ncnc3cc(-c4ccc(F)cc4)sc23)CC1,XC50,874 nM
CC(C)(C)c1ccc(OCC(=O)NC2CCN(c3ccnc4cc(Cl)ccc34)C2)cc1 (configuration not stated),XC50,135 nM
CC1(C)N=C(N)N=C(N)N1c1ccc(Cl)cc1,XC50,31.1 nM
COC(=O)c1ccc(CC(C)NCC(O)c2cccc(I)c2)cc1 (configuration not stated),XC50,1320 nM
COc1ccc(C(=O)C2CCN(CCCCNC(=O)c3ccc(NC(=O)c4cc(Cl)cc(Cl)c4)cc3)CC2)cc1,XC50,173 nM
Cc1c[nH]c(-c2cccc(C(=O)NC3CCC(CCN4CCc5ccc(C#N)cc5CC4)CC3)c2)n1 (configuration not stated),XC50,301 nM
COc1ccc2nccc(NC(=O)C3CCC(NCc4ccc5c(c4)NC(=O)CS5)CC3)c2c1 (configuration not stated),XC50,586 nM

# Reference: ChEMBL document CHEMBL1157539, “Thousands of chemical starting points for antimalarial lead identification” (Nature, 2010)
